Source: patent US20150306154A1, “STRAINS AND METHODS USEFUL FOR MYCOTOXINS” (DuPont Nutrition Biosciences ApS, priority 2011, published 2015)
Read-outs that look alike come from different tables or passages of the source.

What was measured:
[1] = system: nursery pigs; details: 3 ppm DON in diet, 7 days
[2] = system: IPEC-J2 cells; type: cell-based, porcine; details: relative to unstimulated IPEC-J2 cells

How did the ADFI ([1]; Non-Responders) turn out when `CC1=C[C@H]2O[C@@H]3[C@H](O)C[C@](C)([C@@]2(CO)[C@H](O)C1=O)[C@]31CO1` [DON, deoxynivalenol] was run?
Its ADFI is 0.71 kg.

What about the ADG ([1]; Non-Responders) of the same compound?
Its ADG is 0.46 kg.

What about the “G:F” value ([1]; Non-Responders) of the same compound?
The value was 0.64.

And the ADFI ([1]; Responders)?
The ADFI was 0.42 kg.

What about the ADG ([1]; Responders) of the same compound?
Its ADG is 0.26 kg.

What about the “G:F” value ([1]; Responders) of the same compound?
Its value is 0.61.

What about the “IL-6 gene expression fold change” value ([2]; DON 10 ng/mL) of the same compound?
The value was −0.86 fold.

What about the “IL-8 gene expression fold change” value ([2]; DON 10 ng/mL) of the same compound?
The value was 0.56 fold.

What about the “TNF-α gene expression fold change” value ([2]; LPS/DON) of the same compound?
Its value is “about 5 fold”.

With lipopolysaccharide [LPS] as the compound, how does the “IL-6 gene expression fold change” value ([2]; LPS 10 ng/mL) read?
Its value is 0.29 fold.

What about the “IL-8 gene expression fold change” value ([2]; LPS 10 ng/mL) of the same compound?
The value was 0.88 fold.

What about the “TNF-α gene expression fold change” value ([2]; LPS 10 ng/mL) of the same compound?
The value was 0.16 fold.
